Results reported in patent US20210308138A1, “TISSUE TRANSGLUTAMINASE MODULATORS FOR MEDICINAL USE” (Aarhus Universitet, priority 2018, published 2021).

Tests used:
[1] = system: small mesenteric arteries; assay: Acetylcholine-induced endothelium-dependent relaxation of phenylephrine pre-contracted small mesenteric arteries, isometric myograph (ex vivo); parameters: species or system Male Wistar rats; details: 1 hour incubation; Z-DON 4·10^−5, Boc-DON 10^−5, VA-5 10^−5 mol/L; 12-14 weeks old rats
Procedure: Small mesenteric arteries were mounted in microvascular myographs (Danish Myotechnology, Aarhus, Denmark) using two 40 μm wires and stretched to their optimal diameter for isometric tension recordings, which corresponded to 0.9 times the estimated internal diameter at 100 mmHg of transmural pressure. PSS solution in the myograph bath was heated to 37° C. and continuously bubbled with 5% CO2 in air to maintain pH (7.4). The vessel viability was tested at the beginning of each experiment by measuring the vasoconstrictor responses to a solution with a high K^+ concentration (KPSS), equivalent to PSS except that NaCl was exchanged for KCl on an equimolar basis, giving a final concentration of 123.7 mmol/L K^+ and the presence of endothelium was confirmed by addition of acetylcholine (ACh) (10^−5) after pre-constriction with noradrenaline (5·10^−6 mol/L), arteries with less than 75% of relaxation were discarded.
Mesenteric arteries from rats of different age were incubated with (10^−6 mol/L) LDN-27219 or vehicle for 25 minutes and pre-contracted with phenylephrine (Phe) (10^−5 mol/L). Then cumulative addition of acetylcholine (ACh) caused the relaxation of the mesenteric arteries and the concentration-response curves were constructed.
Rats of 5-7 weeks age, about 12 weeks age, and more than 30 weeks of age were tested respectively. The results of the isometric tension studies are shown in FIGS. 1, A), B) and C) respectively, each representing a different their age group.
(§1) The small mesenteric arteries were prepared in the same way is described in example 1.

[2] = biological target: T1, purified human TG2 (Homo sapiens, UniProt P21980); assay: Conformational shift assay by native polyacrylamide gel electrophoresis (native-PAGE); format: biochemical; details: TG2 2.5 uM; 1 mM LDN-27219, 1 mM GTPNa2, or 0.2 mM Z-DON with CaCl2
T1 construct: purchased Zedira (Darmstadt, Germany); host or cells: insect cells
T1 sequence (P21980 1-687): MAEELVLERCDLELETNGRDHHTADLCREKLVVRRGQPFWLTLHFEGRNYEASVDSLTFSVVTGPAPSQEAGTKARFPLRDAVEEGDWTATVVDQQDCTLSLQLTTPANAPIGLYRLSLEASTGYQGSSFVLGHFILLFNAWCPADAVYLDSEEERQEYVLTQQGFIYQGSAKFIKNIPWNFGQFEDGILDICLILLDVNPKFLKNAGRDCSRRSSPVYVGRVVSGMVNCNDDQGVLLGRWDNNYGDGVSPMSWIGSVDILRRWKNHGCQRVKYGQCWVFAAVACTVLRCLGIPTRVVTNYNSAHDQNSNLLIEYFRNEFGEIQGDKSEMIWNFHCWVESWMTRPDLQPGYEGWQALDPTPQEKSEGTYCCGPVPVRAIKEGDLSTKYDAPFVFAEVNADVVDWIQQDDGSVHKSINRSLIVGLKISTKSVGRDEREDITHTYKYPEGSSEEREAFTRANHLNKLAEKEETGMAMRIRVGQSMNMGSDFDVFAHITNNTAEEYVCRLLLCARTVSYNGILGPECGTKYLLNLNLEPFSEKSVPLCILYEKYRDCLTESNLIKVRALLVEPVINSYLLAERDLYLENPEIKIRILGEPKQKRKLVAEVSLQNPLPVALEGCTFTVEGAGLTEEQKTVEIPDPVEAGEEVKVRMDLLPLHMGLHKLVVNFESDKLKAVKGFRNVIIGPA
Procedure: For the conformational shift assay using native polyacrylamide gel electrophoresis (native-PAGE) purified and functional human TG2 protein produced in insect cells was obtained from Zedira (Darmstadt, Germany).
Native gel electrophoresis experiments were performed using a method similar to those previously described (Pinkas D M, et al., PLoS Biol, 2007, 5(12), 2788-2796.) (Iversen R, et al., Proc Natl. Acad. Sci., 2014, 111(43), 17146-17151). Briefly, TG2 (2.5 uM) was incubated for 30 min at room temperature in preincubation buffer (75 mM imidazole, 0.5 mM EDTA, 5 mM DTT [pH 7.2], 10% DMSO) with or without 1 mM GTPNa2 or 1 mM LDN-27219 before adding Native Sample Buffer for Protein Gels (Bio-Rad) or in preincubation buffer with 0.2 mM Z-DON 30 min prior addition of 5 mM of CaCl2 for 20 min. Native buffer was added (dilution 1:2), and 1.5 ug of protein was loaded onto a 4-20% Criterion™ TGX Stain-Free™ gel (Bio-Rad) using Tris-glycine as the running buffer. For 75 min, 125 V was applied at 4° C. The bands were visualized using stain-free technology by exposing the gels to UV light and capturing the image using a PXi 4 Touch image analysis system (Syngene). Band intensity analysis was carried out using GeneTools 4 software (Syngene).

[3] = system: small mesenteric arteries; details: M. Engholm et al., British J. Pharm. (2016), 173, 839-855; cited from earlier work
[4] = system: Male Wistar rats; assay: Mean arterial pressure (MAP) in vivo measurement after intrajugular infusion; details: VA-5 single dose 1 mg/kg, intrajugular infusion during 3 minutes; adult and older rats
Procedure: For ‘in vivo’ experiments Wistar rats of different age were fasted 8 h before anesthesia with 35 mg/kg of S-ketamine and 50 mg/kg of pentobarbital sodium administered intraperitoneally.
Male Wistar rats with 12-14 and 30-35 weeks of age were anesthetized with s-ketamine (35 mg/kg) and pentobarbital (50 mg/kg) and placed on a heated blanket to maintain body temperature at 37° C. ECG needles were installed for electrocardiographic measurements and a solid state catheter (Millar Inc, Houston, USA) was introduced into the carotid artery to measure MAP. MAP and electrocardiographic data was continuously recorded on a computerized data acquisition system (PowerLab, ADInstruments). Adequate depth of anesthesia was checked periodically by the absence of the toe pinch withdrawal effect and ⅓ of the initial dose of anesthetics was administered intraperitoneally when needed (usually each 1½ h). Changes in MAP and electrocardiographic signal in response to intrajugular infusion during 3 minutes of different doses of LDN-27219 and the corresponding vehicle (PEG-400) were studied.
The Area Under the Curve (AUC) was calculated using Graphpad Prism 5.1 (GraphPad Software, San Diego, Calif., USA) for each response to the change in MAP that was collected during the experiments in example 3. The AUC gives information about the maximal response, and about the duration of the effect.
Rats of different age in these experiments were anesthetized, prepared and catheterized as described in Example 3.

[5] = system: vascular smooth muscle cells (VSMCs) potassium currents; assay: Whole-cell patch-clamp of K+ outward currents in isolated vascular smooth muscle cells; format: cell-based, rat; details: LDN-27219 3·10^−5 mol/L 12 min; VA-5 5·10^−5 mol/L one hour incubation
Procedure: For isolation of VSMCs, rat mesenteric arteries were dissected as previously described, opened longitudinally and stored in ice-cold dissociation solution containing (mmol/L): 119 NaCl, 4.7 KCl, 1.18 KH2PO4, 1.17 MgSO4, 24.9 NaHCO3, 0.027 EDTA, and 11 glucose, pH=7.4. Arteries were then equilibrated during 10 min in a dissociation solution with bovine albumin serum (BSA; 1 mg/mL) at 37° C. and then exposed to the same solution supplemented with papain (0.5 mg/mL; Worthington Biochemical Corp., Lakewood, N.J., USA) and dithiothreitol (DTT; 1 mg/mL) at 37° C. for 8 min. Arteries were then washed in ice-cold dissociation solution and moved to dissociation solution containing BSA (1 mg/mL) and collagenase (0.7 mg/mL type F and 0.4 mg/mL type H; Worthington Biochemical Corp.) at 37° C. for 3 min. […]
Membrane currents were recorded under the whole-cell configuration of the patch-clamp technique using an Axon Multiclamp 700A amplifier (Axon instruments, Molecular Devices, CA, USA). […] Current-voltage relations were determined using 600 ms voltage ramps from −100 to 160 mV and a holding potential (Vh) of −65 mV for SMCs.
Amplitudes of K^+-outward currents were measured in control conditions and 12 min after the addition of LDN-27219 (3·10^−5 mol/L) to the extracellular solution by a perfusion system.

[6] = system: small mesenteric arteries; assay: Direct relaxation of U46619 pre-contracted small mesenteric arteries, concentration-response curves; parameters: species or system Male Wistar rats; details: U46619 4·10^−7 mol/L; LDN-27219 10^−8-10^−5 mol/L; Z-DON 10^−8-3·10^−4 mol/L; endothelium intact
Procedure: as §1
The small mesenteric arteries were pre-contracted with the thromboxane analogue, U46619 (4·10^−7 mol/L) and concentration-response curves for TG2 specific inhibitors, LDN-27219 (10^−8-10^−5 mol/L) and Z-DON (10^−8-3·10^−4 mol/L) were constructed. To study the role of the endothelial pathways in LDN-27219 relaxation, concentration-response curves were constructed for it in arteries whose endothelium had been removed mechanically by rubbing the lumen repeatedly with a human scalp hair.

For “Boc-DON-Gln-Ile-Val-OMe [reference compound]”, the “ACh relaxation compared to the vehicle” value [1] was “no significant effect”.

For `Nc1nc2c(ncn2[C@@H]2O[C@H](COP(=O)([O-])OP(=O)([O-])OP(=O)([O-])[O-])[C@@H](O)[C@H]2O)c(=O)[nH]1.[Na+].[Na+].[Na+].[Na+]` [GTP, guanosine 5′-triphosphate sodium salt], the “relative abundance of closed / open conformation of TG2” value [2] was “completely force TG2 to its closed conformation”.

For `NCCSSCCN` [cystamine], the “effects on endothelial pathways” value [3] is given as “lacked effects on endothelial pathways”.

With `C=CC(=O)NCCCC[C@H](NC(=O)OCc1ccccc1)C(=O)N1CCN(C(=O)c2cc3ccc(O)cc3oc2=O)CC1` [VA-5, (S)-Benzyl (6-acrylamido-1-(4-(7-hydroxy-2-oxo-2H-chromene-3-carbonyl)piperazin-1-yl)-1-oxohexan-2-yl)carbamate, reference compound] the “mean blood pressure (MAP)” value [4] was “did not produce any change in the mean blood pressure”, the “ACh relaxation compared to the vehicle” value [1] was “slight inhibition of ACh relaxation” and the “potassium currents compared to control conditions” value [5] was “significantly smaller potassium currents”.

In the case of “Z-DON-Val-Pro-Leu-OMe [reference compound]”, the “relaxation of U46619 pre-contracted arteries” value [6] is reported as “failed to induce any vasodilation”, the “ACh relaxation compared to the vehicle” value [1] is reported as “slight inhibition of ACh relaxation” and the “relative abundance of closed / open conformation of TG2” value [2] is reported as “force its open conformation”.
